In patent US8680052B1, “Methods of treating, reducing the incidence of, and/or preventing ischemic events” (The Medicines Company, priority 2013, dated 2014):
Where two headings read alike, the source gives them in different places.

Key:
[1] = system: patients undergoing percutaneous coronary intervention (PCI); details: for Mortality/Q-wave MI/IDR / Mortality/Q-wave MI/Stent thrombosis: exploratory; for Angiographic complications (site reported): Abrupt vessel closure / Angiographic complications (site reported): Acute stent thrombosis / Angiographic complications (site reported): Need for urgent CABG / Angiographic complications (site reported): New thrombus or suspected thrombus / Angiographic complications (site reported): Threatened abrupt closure / Angiographic complications (site reported): Unsuccessful procedure: index PCI
Method: The diagnosis of non-ST-segment elevation myocardial infarction required troponin I or T greater than the upper limit of normal within 24 hours of randomization (or if troponin results were unavailable at that time, creatine kinase-myocardial band isoenzyme [CK-MB] greater than the upper limit of normal). The diagnosis of unstable angina required ischemic chest discomfort occurring at rest and lasting ≧10 minutes within the 24 hours prior to randomization and dynamic electrocardiographic changes; age ≧65 years and/or diabetes mellitus were also required.
The primary efficacy endpoint was the composite of mortality, myocardial infarction, or ischemia-driven revascularization at 48 hours. The primary analysis was performed on a modified intent-to-treat population. Confirmatory analyses were performed on an intent-to-treat population. Secondary endpoints included the individual rates of mortality, myocardial infarction, new Q-wave myocardial infarction, ischemia-driven revascularization, abrupt vessel closure, or stroke at 48 hours. Mortality at 30 days and 1 year was also recorded. The clinical events committee adjudicated myocardial infarction, Q-wave myocardial infarction, ischemia-driven revascularization, stent thromboses, and stroke (ischemic or hemorrhagic). The definition of stent thrombosis was similar to the Academic Research Consortium definition of definite stent thrombosis. After review of the prespecified analyses, two exploratory endpoints less reliant on periprocedural biomarker ascertainment were examined. The exploratory endpoints, which were composed of prespecified and adjudicated endpoints, were the composite of mortality, Q-wave myocardial infarction, or ischemia-driven revascularization and the composite of mortality, Q-wave myocardial infarction, or stent thrombosis. Bleeding and adverse events through 48 hours were compared.
All efficacy analyses were performed on the modified intent-to-treat population, defined as all randomized patients who received at least one dose of study drug and underwent the index PCI. All safety-related analyses were performed on the safety population, which included all patients who received at least one dose of assigned study drug. Patients in the safety analyses were assigned to a treatment arm based on treatment actually received, not as randomized. Intent-to-treat analyses are also presented for full disclosure of results. All statistical tests were two-tailed using a level of significance of 0.05. […] Logistic regression was also used to analyze the majority of the remaining secondary endpoints.

[2] = molecular target: T1, P2Y12 receptor (Homo sapiens, UniProt Q9H244); assay: Example 2 substudy: platelet function by VerifyNow P2Y12 Assay; type: in vivo
T1 construct: from tissue; host or cells: platelets in whole blood of patients
T1 sequence (Q9H244 whole entry): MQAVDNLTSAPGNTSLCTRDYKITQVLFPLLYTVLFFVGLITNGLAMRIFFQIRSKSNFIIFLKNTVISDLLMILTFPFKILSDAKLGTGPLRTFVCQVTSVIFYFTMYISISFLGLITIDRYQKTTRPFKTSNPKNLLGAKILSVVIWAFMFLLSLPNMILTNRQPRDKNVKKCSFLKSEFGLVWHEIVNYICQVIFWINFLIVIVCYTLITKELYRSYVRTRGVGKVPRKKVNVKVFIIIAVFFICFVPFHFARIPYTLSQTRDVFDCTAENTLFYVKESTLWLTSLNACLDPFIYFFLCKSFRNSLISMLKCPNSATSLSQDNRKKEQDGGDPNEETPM
Method: Platelet function parameters were measured using the VerifyNow® P2Y12 Assay (Accumetrics, San Diego, Calif.). Samples were taken before study drug administration, at approximately 2 hours (during cangrelor/placebo infusion), and 10 hours or next day following randomization.

For `COC(=O)[C@H](c1ccccc1Cl)N1CCc2sccc2C1` [Clopidogrel, clopidogrel, reference compound], the All-cause mortality ([1]; 30-day, ITT) was 47 (1.8) no. (%), the IDR ([1]; 30-day, ITT) was 49 (1.8) no. (%) and the MI ([1]; 30-day, ITT) was 202 (7.6) no. (%). For the same compound, the Mortality/MI/IDR ([1]; 30-day, ITT) was 254 (9.6) no. (%), the “Q-wave MI” value ([1]; 30-day, ITT) was 15 (0.6) no. (%) and the Stent thrombosis ([1]; 30-day, ITT) was 29 (1.1) no. (%). For the same compound, the “Mortality/Q-wave MI/IDR” value ([1]; 30-day, ITT) was 94 (3.5) no. (%), the “Mortality/Q-wave MI/Stent thrombosis” value ([1]; 30-day, ITT) was 77 (2.9) no. (%) and the All-cause mortality ([1]; 30-day, MITT) was 45 (1.7) no. (%). The IDR ([1]; 30-day, MITT) was 46 (1.7) no. (%), the MI ([1]; 30-day, MITT) was 201 (7.6) no. (%) and the Mortality/MI/IDR ([1]; 30-day, MITT) was 249 (9.5) no. (%). For the same compound, the “Q-wave MI” value ([1]; 30-day, MITT) was 14 (0.5) no. (%), the Stent thrombosis ([1]; 30-day, MITT) was 28 (1.1) no. (%) and the “Mortality/Q-wave MI/IDR” value ([1]; 30-day, MITT) was 89 (3.4) no. (%). For the same compound, the “Mortality/Q-wave MI/Stent thrombosis” value ([1]; 30-day, MITT) was 73 (2.8) no. (%), the All-cause mortality ([1]; 30-day, Safety population) was 45 (1.7) no. (%) and the IDR ([1]; 30-day, Safety population) was 47 (1.8) no. (%). The MI ([1]; 30-day, Safety population) was 203 (7.7) no. (%), the Mortality/MI/IDR ([1]; 30-day, Safety population) was 251 (9.5) no. (%) and the “Q-wave MI” value ([1]; 30-day, Safety population) was 15 (0.6) no. (%). The Stent thrombosis ([1]; 30-day, Safety population) was 28 (1.1) no. (%), the “Mortality/Q-wave MI/IDR” value ([1]; 30-day, Safety population) was 90 (3.4) no. (%) and the “Mortality/Q-wave MI/Stent thrombosis” value ([1]; 30-day, Safety population) was 74 (2.8) no. (%). The All-cause mortality ([1]; 48-hour, ITT) was 19 (0.7) no. (%), the IDR ([1]; 48-hour, ITT) was 26 (1.0) no. (%) and the MI ([1]; 48-hour, ITT) was 192 (7.2) no. (%). The Mortality/MI/IDR ([1]; 48-hour, ITT) was 213 (8.0) no. (%), the “Q-wave MI” value ([1]; 48-hour, ITT) was 9 (0.3) no. (%) and the Stent thrombosis ([1]; 48-hour, ITT) was 16 (0.6) no. (%). For the same compound, the Stroke ([1]; 48-hour, ITT) was 6 (0.2) no. (%), the “Mortality/Q-wave MI/IDR” value ([1]; 48-hour, ITT) was 44 (1.7) no. (%) and the “Mortality/Q-wave MI/Stent thrombosis” value ([1]; 48-hour, ITT) was 36 (1.4) no. (%). For the same compound, the All-cause mortality ([1]; 48-hour, MITT) was 18 (0.7) no. (%), the IDR ([1]; 48-hour, MITT) was 24 (0.9) no. (%) and the MI ([1]; 48-hour, MITT) was 191 (7.2) no. (%). For the same compound, the “Mortality/MI/IDR (primary endpoint)” value ([1]; 48-hour, MITT) was 210 (8.0) no. (%), the “Q-wave MI” value ([1]; 48-hour, MITT) was 8 (0.3) no. (%) and the Stent thrombosis ([1]; 48-hour, MITT) was 16 (0.6) no. (%). For the same compound, the Stroke ([1]; 48-hour, MITT) was 5 (0.2) no. (%), the “Mortality/Q-wave MI/IDR” value ([1]; 48-hour, MITT) was 41 (1.6) no. (%) and the “Mortality/Q-wave MI/Stent thrombosis” value ([1]; 48-hour, MITT) was 34 (1.3) no. (%). The “Mortality/Q-wave MI/IDR” value ([1]; 48-hour, Safety population) was 42 (1.6) no. (%), the “Mortality/Q-wave MI/Stent thrombosis” value ([1]; 48-hour, Safety population) was 35 (1.3) no. (%) and the All-cause mortality ([1]; 48-hour, safety population) was 18 (0.7) no. (%). The IDR ([1]; 48-hour, safety population) was 25 (0.9) no. (%), the MI ([1]; 48-hour, safety population) was 193 (7.3) no. (%) and the Mortality/MI/IDR ([1]; 48-hour, safety population) was 212 (8.0) no. (%). The “Q-wave MI” value ([1]; 48-hour, safety population) was 9 (0.3) no. (%), the Stent thrombosis ([1]; 48-hour, safety population) was 16 (0.6) no. (%) and the Stroke ([1]; 48-hour, safety population) was 5 (0.2) no. (%). The “Angiographic complications (site reported): Abrupt vessel closure” value ([1]; ITT) was 16 (0.6), the “Angiographic complications (site reported): Acute stent thrombosis” value ([1]; ITT) was 5 (0.2) and the “Angiographic complications (site reported): Need for urgent CABG” value (shortened to “Angiographic complications … for urgent CABG”) ([1]; ITT) was 4 (0.2). The “Angiographic complications (site reported): New thrombus or suspected thrombus” value ([1]; ITT) was 15 (0.6), the “Angiographic complications (site reported): Threatened abrupt closure” value ([1]; ITT) was 9 (0.3) and the “Angiographic complications (site reported): Unsuccessful procedure” value ([1]; ITT) was 97 (3.7). For the same compound, the “Angiographic complications (site reported): Abrupt vessel closure” value ([1]; MITT) was 16 (0.6), the “Angiographic complications (site reported): Acute stent thrombosis” value ([1]; MITT) was 5 (0.2) and the “Angiographic complications … for urgent CABG” value ([1]; MITT) was 3 (0.1). The “Angiographic complications (site reported): New thrombus or suspected thrombus” value ([1]; MITT) was 15 (0.6), the “Angiographic complications (site reported): Threatened abrupt closure” value ([1]; MITT) was 9 (0.3) and the “Angiographic complications (site reported): Unsuccessful procedure” value ([1]; MITT) was 95 (3.6). For the same compound, the “Angiographic complications (site reported): Abrupt vessel closure” value ([1]; Safety population) was 16 (0.6), the “Angiographic complications (site reported): Acute stent thrombosis” value ([1]; Safety population) was 5 (0.2) and the “Angiographic complications … for urgent CABG” value ([1]; Safety population) was 3 (0.1). For the same compound, the “Angiographic complications (site reported): New thrombus or suspected thrombus” value ([1]; Safety population) was 15 (0.6), the “Angiographic complications (site reported): Threatened abrupt closure” value ([1]; Safety population) was 9 (0.3) and the “Angiographic complications (site reported): Unsuccessful procedure” value ([1]; Safety population) was 95 (3.6). For the same compound, the “median PRU (VerifyNow P2Y12 assay)” value ([2]; 12-24 hours after discontinuation of the cangrelor infusion) was 206 PRU and the “median PRU (VerifyNow P2Y12 assay)” value ([2]; during the study drug infusion (approx. 2 hours)) was 277 PRU.
